The values that follow come from patent US10533006B2, “Nitrogen-containing heterocycle and carbocycle derivatives having TrkA inhibitory activity” (Shionogi & Co., Ltd., priority 2016, dated 2020).

The structures appear in SMILES notation.

T1 sequence (P04629 33-796): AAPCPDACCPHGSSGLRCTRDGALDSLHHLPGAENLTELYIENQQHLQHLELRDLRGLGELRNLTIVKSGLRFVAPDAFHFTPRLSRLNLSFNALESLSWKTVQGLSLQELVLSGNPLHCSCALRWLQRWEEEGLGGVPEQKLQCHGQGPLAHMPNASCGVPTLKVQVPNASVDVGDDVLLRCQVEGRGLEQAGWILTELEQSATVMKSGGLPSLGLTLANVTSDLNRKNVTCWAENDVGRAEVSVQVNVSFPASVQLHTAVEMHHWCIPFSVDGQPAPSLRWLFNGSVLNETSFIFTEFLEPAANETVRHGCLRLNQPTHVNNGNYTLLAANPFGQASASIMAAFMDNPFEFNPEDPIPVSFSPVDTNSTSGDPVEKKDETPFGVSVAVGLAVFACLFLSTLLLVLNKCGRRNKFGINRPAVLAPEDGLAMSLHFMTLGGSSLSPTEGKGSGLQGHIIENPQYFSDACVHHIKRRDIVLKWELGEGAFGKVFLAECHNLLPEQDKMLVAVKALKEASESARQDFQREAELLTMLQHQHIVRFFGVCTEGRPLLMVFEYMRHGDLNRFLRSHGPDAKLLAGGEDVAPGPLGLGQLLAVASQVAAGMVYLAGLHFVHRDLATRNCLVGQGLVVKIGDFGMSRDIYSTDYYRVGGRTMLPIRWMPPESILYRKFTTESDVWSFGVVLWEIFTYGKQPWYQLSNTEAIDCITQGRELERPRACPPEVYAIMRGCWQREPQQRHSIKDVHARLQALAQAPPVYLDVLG

One experiment addresses T1, human TrkA (Homo sapiens, UniProt P04629).
T1 construct: purchased Lifetechnologies PV3144
As to the kind of experiment: Human TrkA inhibition assay. In kind it is biochemical. The following applies: human TrkA phosphorylation inhibition, ATP 500 μmol/L; read-out: IC50_nM. On the procedure:
Seven point five L per well of human TrkA (PV3144, Lifetechnologies, final concentration: 1 nmol/L) suspended in the assay buffer (100 mmol/L 4-(2-hydroxyethyl)-1-piperazineethanesulfonic acid (HEPES), 10 mmol/L magnesium chloride, 0.003 vol % Brij-35, 0.004 vol % Tween20 and 1 mmol/L dithiothreitol (DTT)) was applied in a 384 well plate and the plate was pre-incubated for 15 min at room temperature with 0.4 μL of each compound (final concentration: 200 μmol/L-0.1 nM) dissolved in DMSO. Then, fluorescent substrate (FL-peptide 27, 760424, PerkinElmer, final concentration: 1.5 μmol/L) and ATP (final concentration 500 μmol/L) dissolved in the assay buffer was added in each well. After the incubation of 120 min at 37° C., fifteen μL of termination buffer (100 mmol/L HEPES, 40 mmol/L ethylenediaminetetraacetic acid (EDTA), 10 mmol/L magnesium chloride, 0.003 vol % Brij-35, 0.004 vol % Tween20, 1 mmol/L DTT and 0.16 vol % Coating Reagent 3) was added in each well to stop the enzyme reaction. Fluorescent intensities (FI) of phosphorylated and non-phosphorylated fluorescent substrates were measured by LabChip EZReader II (Caliper LifeSciences, Inc.), and conversion ratio (CR) was calculated by the following formula-1. The CR in the well applied with DMSO alone was used as a negative control and the CR in the well without applying TrkA was used as a positive control. The inhibitory effect of each compound on TrkA phosphorylation was calculated by the following formula-2. CR (%)=(FI of phosphorylated substrate/(FI of phosphorylated substrate+FI of non-phosphorylated substrate))×100 (Formula-1) Phosphorylation inhibition (%)=(1−(CR with compound treatment−CR of positive control)/(CR of negative control−CR of positive control))×100 (Formula-2)
IC50 values (nmol/L) were determined by the logistic regression using the inhibition data in 10 points of 3-fold dilution series at a compound concentration range of 2 μmol/L to 0.1 nmol/L, or 15 points of 3-fold dilution series at the range of 200 μmol/L to 0.04 nmol/L.
As to `COCCN1C[C@@H](NC(=O)Nc2c(C)c(-c3ccnc(C(=O)N[C@@H]4CCCOC4)c3)nn2-c2ccccc2)[C@H](c2ccccc2)C1` (mixture of isomers) [Compound I-72], the IC50 was under 100 nM.

Turning to `COCCN1C[C@@H](NC(=O)Nc2c(C)c(-c3cnn(C)c3)nn2-c2ccccc2)[C@H](c2ccnc(Cl)c2)C1` (racemic) [Compound I-1], the IC50 is under 100 nM.

For the compound `COCCN1C[C@@H](NC(=O)Nc2c(C)c(-c3cnn(C)c3)nn2-c2ccccc2)[C@H](c2ccnc(F)c2)C1` (racemic) [Compound I-2], the IC50 was under 100 nM.

Consider `COCCN1C[C@@H](NC(=O)Nc2c(C)c(-c3ccc4c(cnn4C)c3)nn2-c2ccccc2)[C@H](c2ccccc2)C1` (racemic) [Compound I-3], for which the IC50 is under 100 nM.

Turning to `COCCN1C[C@@H](NC(=O)Nc2c(C)c(-c3cnn(C)c3)nn2-c2ccccc2)[C@H](c2cc(Cl)nc(Cl)c2)C1` (racemic) [Compound I-4], the IC50 is 100 to 1000 nM.

Consider `COCCN1C[C@@H](NC(=O)Nc2c(C)c(-c3cnn(C)c3)nn2-c2ccccc2)[C@H](c2cc(F)nc(F)c2)C1` (racemic) [Compound I-7], for which the IC50 is under 100 nM.

`COCCN1C[C@@H](NC(=O)Nc2c(C)c(-c3ccc(C(=O)NCC(F)(F)F)nc3)nn2-c2ccccc2)[C@H](c2ccccc2)C1` (racemic) [Compound I-12]: the IC50 is under 100 nM.

`COCCN1C[C@@H](NC(=O)Nc2c(C)c(-c3cnn(C)c3)nn2-c2ccccc2)[C@H](c2cnc(Cl)c(F)c2)C1` (racemic) [Compound I-16]: the IC50 was under 100 nM.

In the case of `COCCN1C[C@@H](NC(=O)Nc2c(C)c(-c3cnc4c(cnn4C)c3)nn2-c2ccccc2)[C@H](c2ccccc2)C1` (racemic) [Compound I-17], the IC50 is under 100 nM.

`Cc1c(-c2cnn(C)c2)nn(-c2ccccc2)c1NC(=O)N[C@@H]1CN(Cc2ccccc2)C[C@H]1c1ccnc(F)c1` (racemic) [Compound I-18]: the IC50 was over 1000 nM.

Take `COCCN1C[C@@H](NC(=O)Nc2c(C)c(-c3cnn(C)c3)nn2-c2ccccc2)[C@H](c2cnc(F)c(Cl)c2)C1` (racemic) [Compound I-19]: the IC50 was under 100 nM.

As to `Cc1c(-c2cnn(C)c2)nn(-c2ccccc2)c1NC(=O)N[C@@H]1CN(CCOC(F)(F)F)C[C@H]1c1ccnc(F)c1` (racemic) [Compound I-20], the IC50 was under 100 nM.

As to `COCCN1C[C@@H](NC(=O)Nc2c(C)c(-c3ccc4c(cnn4C)c3)nn2-c2ccccc2)[C@H](c2cnc(F)c(F)c2)C1` (racemic) [Compound I-26], the IC50 is under 100 nM.

Consider `COCCN1C[C@@H](NC(=O)Nc2c(C)c(-c3ccc(C(=O)NCc4ccccc4)nc3)nn2-c2ccccc2)[C@H](c2ccccc2)C1` (racemic) [Compound I-27], for which the IC50 is under 100 nM.

As for `COCCN1C[C@@H](NC(=O)Nc2c(C)c(-c3cnc4cnn(C)c4c3)nn2-c2ccccc2)[C@H](c2ccccc2)C1` (racemic) [Compound I-28], the IC50 is under 100 nM.

Consider `COCCN1C[C@@H](NC(=O)Nc2c(C)c(-c3ccnc(C(=O)NC4CCOCC4)c3)nn2-c2ccccc2)[C@H](c2ccccc2)C1` (racemic) [Compound I-29], for which the IC50 was under 100 nM.

For `COCCN1C[C@@H](NC(=O)Nc2c(C)c(-c3cnc4nccn4c3)nn2-c2ccccc2)[C@H](c2ccccc2)C1` (racemic) [Compound I-30], the IC50 is under 100 nM.

In the case of `COCCN1C[C@@H](NC(=O)Nc2c(C)c(-c3cnc(OCCO)nc3)nn2-c2ccccc2)[C@H](c2ccccc2)C1` (racemic) [Compound I-31], the IC50 was under 100 nM.

As for `COCCN1C[C@@H](NC(=O)Nc2c(C)c(-c3cnc4nc(C)nn4c3)nn2-c2ccccc2)[C@H](c2ccccc2)C1` (racemic) [Compound I-32], the IC50 was under 100 nM.

In the case of `COCCN1C[C@@H](NC(=O)Nc2c(C)c(-c3cnc4ncnn4c3)nn2-c2ccccc2)[C@H](c2ccccc2)C1` (racemic) [Compound I-33], the IC50 is under 100 nM.

Regarding `COCCN1C[C@@H](NC(=O)Nc2c(C)c(-c3cnc4nc(C)oc4c3)nn2-c2ccccc2)[C@H](c2ccccc2)C1` (racemic) [Compound I-34], the IC50 is under 100 nM.

Consider `CNC(=O)c1ccc(-c2nn(-c3ccccc3)c(NC(=O)N[C@@H]3CN(CCOC)C[C@H]3c3ccccc3)c2C)cn1` (racemic) [Compound I-35], for which the IC50 was under 100 nM.

With `COCCN1C[C@@H](NC(=O)Nc2c(C)c(-c3ccc(C(=O)N(C)C)nc3)nn2-c2ccccc2)[C@H](c2ccccc2)C1` (racemic) [Compound I-36], the IC50 was under 100 nM.

Turning to `COCCN1C[C@@H](NC(=O)Nc2c(C)c(-c3cnc4c(c3)nnn4C)nn2-c2ccccc2)[C@H](c2ccccc2)C1` (racemic) [Compound I-37], the IC50 was under 100 nM.

Regarding `COCCN1C[C@@H](NC(=O)Nc2c(C)c(-c3cnc4c(ccn4C)c3)nn2-c2ccccc2)[C@H](c2ccccc2)C1` (racemic) [Compound I-38], the IC50 is under 100 nM.

Regarding `COCCN1C[C@@H](NC(=O)Nc2c(C)c(-c3cnn(C)c3)nn2-c2ccccc2)[C@H](c2cc(F)nc(Cl)c2)C1` (racemic) [Compound I-39], the IC50 was under 100 nM.

With `COCCN1C[C@@H](NC(=O)Nc2c(C)c(-c3cnc4ccnn4c3)nn2-c2ccccc2)[C@H](c2ccccc2)C1` (racemic) [Compound I-40], the IC50 was under 100 nM.

With `COCCN1C[C@@H](NC(=O)Nc2c(C)c(-c3ccc(C(=O)NC4CCOCC4)nc3)nn2-c2ccccc2)[C@H](c2ccccc2)C1` (racemic) [Compound I-41], the IC50 was under 100 nM.

`COCCN1C[C@@H](NC(=O)Nc2c(C)c(-c3ccc(C(N)=O)nc3)nn2-c2ccccc2)[C@H](c2ccccc2)C1` (racemic) [Compound I-42]: the IC50 is under 100 nM.

Regarding `CCN1CCC(NC(=O)c2cc(-c3nn(-c4ccccc4)c(NC(=O)N[C@@H]4CN(CCOC)C[C@H]4c4ccccc4)c3C)ccn2)CC1` (racemic) [Compound I-43], the IC50 is under 100 nM.

Regarding `COCCN1C[C@@H](NC(=O)Nc2c(C)c(-c3ccnc(C(N)=O)c3)nn2-c2ccccc2)[C@H](c2ccccc2)C1` (racemic) [Compound I-44], the IC50 is under 100 nM.

As for `CNC(=O)c1cc(-c2nn(-c3ccccc3)c(NC(=O)N[C@@H]3CN(CCOC)C[C@H]3c3ccccc3)c2C)ccn1` (racemic) [Compound I-45], the IC50 was under 100 nM.

`CCNC(=O)c1cc(-c2nn(-c3ccccc3)c(NC(=O)N[C@@H]3CN(CCOC)C[C@H]3c3ccccc3)c2C)ccn1` (racemic) [Compound I-46]: the IC50 was under 100 nM.

Take `COCCN1C[C@@H](NC(=O)Nc2c(C)c(-c3ccnc(C(=O)N(C)C)c3)nn2-c2ccccc2)[C@H](c2ccccc2)C1` (racemic) [Compound I-47]: the IC50 is under 100 nM.

For the compound `COCCN1C[C@@H](NC(=O)Nc2c(C)c(-c3ccnc(C(=O)NCC(F)(F)F)c3)nn2-c2ccccc2)[C@H](c2ccccc2)C1` (racemic) [Compound I-48], the IC50 is under 100 nM.

As to `COCCN1C[C@@H](NC(=O)Nc2c(C)c(-c3ccnc(C(=O)NCCO)c3)nn2-c2ccccc2)[C@H](c2ccccc2)C1` (racemic) [Compound I-49], the IC50 is under 100 nM.

With `CCN1CCC(NC(=O)c2ccc(-c3nn(-c4ccccc4)c(NC(=O)N[C@@H]4CN(CCOC)C[C@H]4c4ccccc4)c3C)cn2)CC1` (racemic) [Compound I-50], the IC50 was under 100 nM.

Consider `COCCN1C[C@@H](NC(=O)Nc2c(C)c(-c3cnc4c(c3)ncn4C)nn2-c2ccccc2)[C@H](c2ccccc2)C1` (racemic) [Compound I-51], for which the IC50 is under 100 nM.

For `CNC(=O)c1cc(-c2nn(-c3ccccc3)c(NC(=O)N[C@@H]3CN(CCOC)C[C@H]3c3ccccc3)c2C)cn(C)c1=O` (racemic) [Compound I-52], the IC50 was under 100 nM.

On to `CNC(=O)c1cc(-c2nn(-c3ccccc3)c(NC(=O)N[C@@H]3CN(CCOC)C[C@H]3c3ccccc3)c2C)cnc1OC` (racemic) [Compound I-53], for which the IC50 was under 100 nM.

For the compound `CCNC(=O)c1cc(-c2nn(-c3ccccc3)c(NC(=O)N[C@@H]3CN(CCOC)C[C@H]3c3ccccc3)c2C)cn(C)c1=O` (racemic) [Compound I-54], the IC50 is under 100 nM.

For the compound `CCNC(=O)c1cc(-c2nn(-c3ccccc3)c(NC(=O)N[C@@H]3CN(CCOC)C[C@H]3c3ccccc3)c2C)cnc1OC` (racemic) [Compound I-55], the IC50 was under 100 nM.

The same experiment, now with this note: human TrkA phosphorylation inhibition, ATP 500 μmol/L; read-out: IC50 value.
For `COCCN1C[C@@H](NC(=O)Nc2c(C)c(-c3cc(C(=O)NC4CCOCC4)c(=O)n(C)c3)nn2-c2ccccc2)[C@H](c2ccccc2)C1` (racemic) [Compound I-56], the IC50 worked out at 0.98 nM.

As to `COCCN1C[C@@H](NC(=O)Nc2c(C)c(-c3cnc(OC)c(C(=O)NC4CCOCC4)c3)nn2-c2ccccc2)[C@H](c2ccccc2)C1` (racemic) [Compound I-57], the IC50 stood at 1 nM.
